Measured values: publication PMC9274004, “Deciphering the Molecular Interaction Between the Adhesion G Protein-Coupled Receptor ADGRV1 and its PDZ-Containing Regulator PDZD7” (Frontiers in Molecular Biosciences, 2022)
Where no end group is shown, it is not given here.

Legend:
Assay type in all cases: binding, murine
PDZD7 PDZ1 (81-167) = target: T1, PDZD7 PDZ1 (81-167) (Mus musculus, UniProt E9Q9W7); assay: NMR titration of PDZ1 with ADGRV1 ligands; details: NMR titration (1H-15N HSQC CSP), Tris HCl pH 7.5 (50 mM), 25°C; SD of Kd over at least ten shifting peaks
T1 construct: (Uniprot entry E9Q9W7-1); PDZ1 (81-167); GST (followed by TEV site) (N, cleaved yes); made in house; host or cells: E. coli BL21 DE3
Description: (§1) All experiments were recorded at 25°C on a Bruker 800 MHz spectrometer equipped with a triple resonance ^1H{^13C/^15N} cryoprobe. The ^1H, ^15 N and ^13C backbone resonances assignment of PDZ1ext was carried out using 3D HNCA, HNCACB, HNCO, HNCOCA experiments (Tris HCl buffer adjusted to pH 6). The 2D ^1H-^15N HSQC spectra used to compare PDZ1, PDZ1ext, PDZ2 and PDZ2ext were recorded in Tris HCl pH 7.5 (50 mM). The 2D ^1H-^15N HSQC spectra used to compare PDZ1ext, PDZ2ext and P1P2 were recorded in Phosphate Buffer pH 6.5 (50 mM). Titration experiments of PDZ1 (WT), PDZ1ext (WT) and PDZ1ext (G103R) against ADGRV1pbm peptide were performed in Tris HCl pH 7.5 (50 mM). Averaged Chemical Shifts Perturbations (CSP) were calculated as: Δδavg = ((Δδ(^1H))^2+(Δδ(^15N)*0.159)^2)^½. […]
(§2) We monitored the interaction between PDZD7 constructs and a peptide (ADGRV1pbm) corresponding to the last 13 residues of ADGRV1, encompassing its PBM (sequence VELRRIPIADTHL-COOH; PBM underlined). We measured apparent Kd values of our constructs towards ADGRV1pbm using several biophysical methods (NMR, fluorescence, MicroScale Thermophoresis (MST)) (Table 1; Supplementary Figure S3–S5). […]

PDZD7 PDZ1ext (81-192) = target: T2, PDZD7 PDZ1ext (81-192) (Mus musculus, UniProt E9Q9W7); assay: NMR titration of PDZ1ext with ADGRV1 ligands; details: NMR titration (1H-15N HSQC CSP), Tris HCl pH 7.5 (50 mM), 25°C; SD of Kd over at least ten shifting peaks; read-out: Kd
T2 construct: PDZ1 (81-167), PDZ1ext (81-192); GST (followed by TEV site) (N, cleaved yes); made in house; host or cells: E. coli BL21 DE3
T2 sequence (E9Q9W7 81-192): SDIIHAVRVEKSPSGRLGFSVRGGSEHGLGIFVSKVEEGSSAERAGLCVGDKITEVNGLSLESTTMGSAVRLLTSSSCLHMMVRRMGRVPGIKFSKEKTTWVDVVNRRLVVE
Description: as §1, §2

PDZD7 N-PDZ1ext = target: T3, PDZD7 N-PDZ1ext (Mus musculus, UniProt E9Q9W7); assay: NMR titration of N-PDZ1ext with ADGRV1 ligands; details: NMR titration, 25°C; SD over at least ten shifting peaks; read-out: Kd (Peptide)
T3 construct: including the N-terminus of the protein (N-PDZ1ext construct; M1-E192); GST (followed by TEV site) (N, cleaved yes); made in house; host or cells: E. coli BL21 DE3
T3 sequence (E9Q9W7 1-192): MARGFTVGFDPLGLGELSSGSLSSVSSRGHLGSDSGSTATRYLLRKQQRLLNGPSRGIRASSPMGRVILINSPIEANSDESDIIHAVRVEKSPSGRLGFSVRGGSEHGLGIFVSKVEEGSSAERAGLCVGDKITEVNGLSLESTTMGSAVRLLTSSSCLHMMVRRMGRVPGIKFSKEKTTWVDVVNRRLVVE
Description: All experiments were recorded at 25°C on a Bruker 800 MHz spectrometer equipped with a triple resonance ^1H{^13C/^15N} cryoprobe. The ^1H, ^15 N and ^13C backbone resonances assignment of PDZ1ext was carried out using 3D HNCA, HNCACB, HNCO, HNCOCA experiments (Tris HCl buffer adjusted to pH 6). The 2D ^1H-^15N HSQC spectra used to compare PDZ1, PDZ1ext, PDZ2 and PDZ2ext were recorded in Tris HCl pH 7.5 (50 mM). The 2D ^1H-^15N HSQC spectra used to compare PDZ1ext, PDZ2ext and P1P2 were recorded in Phosphate Buffer pH 6.5 (50 mM). Titration experiments of PDZ1 (WT), PDZ1ext (WT) and PDZ1ext (G103R) against ADGRV1pbm peptide were performed in Tris HCl pH 7.5 (50 mM). Averaged Chemical Shifts Perturbations (CSP) were calculated as: Δδavg = ((Δδ(^1H))^2+(Δδ(^15N)*0.159)^2)^½. For the determination of dissociation constants (Kd) of each peptide/PDZ interaction, averaged CSP δavg was plotted as a function of the molar ratio (peptide/PDZ) for several peaks and fitted using nonlinear regression and assuming a simple complex formation model.
The P1P2 tandem of PDZD7 is preceded by 80 residues with no predicted secondary or tertiary structure, but which could contribute to the interaction with ADGRV1. […] We first aimed at identifying potential secondary structures in both PDZD7 N-terminal region and ADGRV1 cytoplasmic domain. To this end, we produced both an extended PDZ1ext construct, including the N-terminus of the protein (N-PDZ1ext construct; M1-E192) and the whole ADGRV1 cytoplasmic domain of 152 residues.
On the overlay of PDZ1ext and N-PDZ1ext HSQC spectra, there is no significant chemical shift changes on PDZ1ext due to the presence of the N-terminal region (CSPs <0.04 ppm). […] We used the entire cytoplasmic domain of ADGRV1 as partner of PDZD7 in NMR and fluorescence titrations experiments. […] Finally, we measured Kd values in the few micromolar range between the tandem P1P2 and the whole cytoplasmic domain and the last 13 residues of ADGRV1 by fluorescence experiments.

Kd (PDZD7 PDZ1 (81-167)): 1.31 mM
Kd (PDZD7 PDZ1ext (81-192)): 47 ± 6 µM
Kd (PDZD7 N-PDZ1ext): 270 ± 21 µM
Sequence: VELRRIPIADTHL [ADGRV1pbm]
